From patent US11964953B2, “Substituted aminothiazoles as DGKzeta inhibitors for immune activation” (Bayer Aktiengesellschaft, priority 2020, dated 2024)

Target: human DGKζ (Homo sapiens (Human), UniProt Q13574)
Assay: Human DGKζ kinase activity inhibition assay (ADP-Glo)
Format: biochemical
Conditions: in vitro human DGKζ kinase activity inhibition assay; read-out: IC50
Summary of the method: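 Enzyme was C-terminally FLAG-tagged full-length recombinant human DGKζ from baculovirus-infected insect cells. Substrate preparation used octyl-β-D-glucopyranoside in 50 mM MOPS pH 7.4 with sonication; ADP generated was quantified by ADP-Glo luminescence as activity measure.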

human DGKζ, sequence (Q13574 other isoform, or with tags, fused parts or gaps): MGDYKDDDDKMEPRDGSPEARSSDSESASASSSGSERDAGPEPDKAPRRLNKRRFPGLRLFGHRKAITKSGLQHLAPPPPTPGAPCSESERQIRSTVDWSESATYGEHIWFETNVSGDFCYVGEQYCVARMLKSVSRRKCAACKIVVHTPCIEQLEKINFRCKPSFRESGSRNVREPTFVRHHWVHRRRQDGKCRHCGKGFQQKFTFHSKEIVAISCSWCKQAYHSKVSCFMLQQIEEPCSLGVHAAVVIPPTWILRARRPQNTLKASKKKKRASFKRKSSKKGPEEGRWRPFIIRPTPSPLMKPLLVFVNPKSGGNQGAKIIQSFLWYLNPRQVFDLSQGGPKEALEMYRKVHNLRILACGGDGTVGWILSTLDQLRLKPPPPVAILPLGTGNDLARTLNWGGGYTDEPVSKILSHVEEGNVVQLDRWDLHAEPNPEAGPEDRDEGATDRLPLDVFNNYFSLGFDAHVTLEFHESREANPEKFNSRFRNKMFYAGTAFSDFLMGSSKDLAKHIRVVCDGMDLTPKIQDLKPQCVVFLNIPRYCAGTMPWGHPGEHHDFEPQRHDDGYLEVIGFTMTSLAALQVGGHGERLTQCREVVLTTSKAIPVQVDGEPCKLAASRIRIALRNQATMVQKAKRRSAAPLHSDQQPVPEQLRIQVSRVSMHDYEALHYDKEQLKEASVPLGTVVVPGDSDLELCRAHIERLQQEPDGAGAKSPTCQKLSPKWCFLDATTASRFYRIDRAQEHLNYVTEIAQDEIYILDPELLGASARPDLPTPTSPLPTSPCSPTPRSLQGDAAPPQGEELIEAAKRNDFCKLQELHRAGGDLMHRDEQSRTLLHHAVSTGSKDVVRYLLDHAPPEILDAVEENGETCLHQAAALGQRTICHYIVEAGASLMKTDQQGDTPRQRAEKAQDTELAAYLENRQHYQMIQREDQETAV

SMILES	IC50
CC(C(N)=O)N(c1ccc(Cl)cc1)c1nc(N)c(C(=O)c2ccncc2)s1 (single isomer, unassigned) [Example 57.1, 2-(N-[4-amino-5-(pyridine-4-carbonyl)thiazol-2-yl]-4-chloro-anilino)propanamide]	137 nM
COc1ccc(C(=O)c2sc(N(c3ccc(OC(F)(F)F)c(Cl)c3)C(C)C(N)=O)nc2N)cc1 (racemic) [Example 222, rac-2-[N-[4-amino-5-(4-methoxybenzoyl)thiazol-2-yl]-3-chloro-4-(trifluoromethoxy)anilino]propanamide]	108 nM
COc1ccc(C(=O)c2sc(N(c3ccc(F)c(Cl)c3)C(C)C(N)=O)nc2N)cc1 (single isomer, unassigned) [Example 161.2, 2-(N-[4-amino-5-(4-methoxybenzoyl)thiazol-2-yl]-3-chloro-4-fluoro-anilino)propanamide]	2570 nM
CC(C(N)=O)N(c1ccc(F)cc1)c1nc(N)c(C(=O)c2ccc(C(F)(F)F)nc2)s1 (racemic) [Example 29, rac-2-(N-[4-amino-5-[6-(trifluoromethyl)pyridine-3-carbonyl]thiazol-2-yl]-4-fluoro-anilino)propanamide]	58.4 nM
CC(C(N)=O)N(c1ccc(F)c(F)c1)c1nc(N)c(C(=O)c2ccncc2)s1 (single isomer, unassigned) [Example 50.2, 2-(N-[4-amino-5-(pyridine-4-carbonyl)thiazol-2-yl]-3,4-difluoro-anilino)propanamide]	14300 nM
CCN(C)C(=O)COc1ccc(C(=O)c2sc(N(c3ccc(F)cc3)C(C)C(N)=O)nc2N)cc1 (racemic) [Example 111, rac-2-(N-[4-amino-5-[4-[2-[ethyl(methyl)amino]-2-oxo-ethoxy]benzoyl]thiazol-2-yl]-4-fluoro-anilino)propanamide]	334 nM
CC1CC(C)CN(c2ccc(C(=O)c3sc(N(c4ccc(F)cc4)C(C)C(N)=O)nc3N)cn2)C1 (racemic) [Example 281, rac-2-(N-[4-amino-5-[6-(3,5-dimethyl-1-piperidyl)pyridine-3-carbonyl]thiazol-2-yl]-4-fluoro-anilino)propanamide]	98 nM
CC(C(N)=O)N(c1ccc(OC(F)F)c(F)c1)c1nc(N)c(C(=O)c2ccncc2)s1 (racemic) [Example 208, rac-2-[N-[4-amino-5-(pyridine-4-carbonyl)thiazol-2-yl]-4-(difluoromethoxy)-3-fluoro-anilino]propanamide]	672 nM
Cc1ccc(N(c2nc(N)c(C(=O)c3ccccc3)s2)C(C)C(N)=O)cc1 (racemic) [Example 73, rac-2-(N-(4-amino-5-benzoyl-thiazol-2-yl)-4-methyl-anilino)propanamide]	148 nM
CC(C(N)=O)N(c1ccc(F)cc1)c1nc(N)c(C(=O)c2ccccc2)s1 (racemic) [Example 61, rac-2-(N-(4-amino-5-benzoyl-thiazol-2-yl)-4-fluoro-anilino)propanamide]	93.2 nM
CONC(=O)COc1ccc(C(=O)c2sc(N(c3ccc(F)cc3)C(C)C(N)=O)nc2N)cc1 (racemic) [Example 102, rac-2-(N-[4-amino-5-[4-[2-(methoxyamino)-2-oxo-ethoxy]benzoyl]thiazol-2-yl]-4-fluoro-anilino)propanamide]	506 nM
CC(C(N)=O)N(c1ccc(F)cc1)c1nc(N)c(C(=O)c2ccc(C#N)cc2F)s1 (racemic) [Example 22, rac-2-(N-[4-amino-5-(4-cyano-2-fluoro-benzoyl)thiazol-2-yl]-4-fluoro-anilino)propanamide]	130 nM
CC(C(N)=O)N(c1ccc(Cl)c(F)c1)c1nc(N)c(C(=O)c2ccncc2)s1 (racemic) [Example 56, rac-2-(N-[4-amino-5-(pyridine-4-carbonyl)thiazol-2-yl]-4-chloro-3-fluoro-anilino)propanamide]	120 nM
CC(C(N)=O)N(c1ccc(F)cc1)c1nc(N)c(C(=O)c2ccc(C(F)(F)F)nc2)s1 (single isomer, unassigned) [Example 29.2, 2-(N-[4-amino-5-[6-(trifluoromethyl)pyridine-3-carbonyl]thiazol-2-yl]-4-fluoro-anilino)propanamide]	46.2 nM
CC(C(N)=O)N(c1ccc(Cl)c(F)c1)c1nc(N)c(C(=O)c2ccc(O)cc2)s1 (single isomer, unassigned; enantiomer 2) [Example 290, 2-(N-[4-amino-5-(4-hydroxybenzoyl)thiazol-2-yl]-4-chloro-3-fluoro-anilino)propanamide (enantiomer 2)]	936 nM
Cc1ccc(N(c2nc(N)c(C(=O)c3ccccc3)s2)C(C)C(N)=O)cc1 (single isomer, unassigned) [Example 73.1, 2-(N-(4-amino-5-benzoyl-thiazol-2-yl)-4-methyl-anilino)propanamide]	3720 nM
CC(C(N)=O)N(c1ccc(F)cc1)c1nc(N)c(C(=O)c2ccc(OCC(=O)NCC(C)(C)C)cc2)s1 (racemic) [Example 141, rac-2-(N-[4-amino-5-[4-[2-(2,2-dimethylpropylamino)-2-oxo-ethoxy]benzoyl]thiazol-2-yl]-4-fluoro-anilino)propanamide]	389 nM
CC(C(N)=O)N(c1ccc(OC(F)(F)F)c(Cl)c1)c1nc(N)c(C(=O)c2ccc(Cl)cc2)s1 (racemic) [Example 223, rac-2-[N-[4-amino-5-(4-chlorobenzoyl)thiazol-2-yl]-3-chloro-4-(trifluoromethoxy)anilino]propanamide]	235 nM
COc1ccc(C(=O)c2sc(N(c3ccc(OC(F)F)nc3)C(C)C(N)=O)nc2N)cc1 (racemic) [Example 252, rac-2-[[4-amino-5-(4-methoxybenzoyl)thiazol-2-yl]-[6-(difluoromethoxy)-3-pyridyl]amino]propanamide]	106 nM
CC(C(N)=O)N(c1ccc(F)c(F)c1)c1nc(N)c(C(=O)c2ccncc2)s1 (racemic) [Example 50, rac-2-(N-[4-amino-5-(pyridine-4-carbonyl)thiazol-2-yl]-3,4-difluoro-anilino)propanamide]	378 nM
CC(C(N)=O)N(c1ccc(OC(F)(F)F)nc1)c1nc(N)c(C(=O)c2ccc(OC(F)F)nc2)s1 (racemic) [Example 251, rac-2-[[4-amino-5-[6-(difluoromethoxy)pyridine-3-carbonyl]thiazol-2-yl]-[6-(trifluoromethoxy)-3-pyridyl]amino]propanamide]	87 nM
CC(C(N)=O)N(c1nc(N)c(C(=O)c2ccccc2)s1)c1ccc(OC(F)(F)F)cc1Cl (racemic) [Example 240, rac-2-[N-(4-amino-5-benzoyl-thiazol-2-yl)-2-chloro-4-(trifluoromethoxy)anilino]propanamide]	1330 nM
CC(C(N)=O)N(c1cccnc1)c1nc(N)c(C(=O)c2ccccc2)s1 (single isomer, unassigned) [Example 79.2, 2-[(4-amino-5-benzoyl-thiazol-2-yl)-(3-pyridyl)amino]propanamide]	2390 nM

More lines, in order of falling IC50, values ahead:

IC50	SMILES
69 nM	CC(C(N)=O)N(c1ccc(OC(F)F)c(F)c1)c1nc(N)c(C(=O)c2ccc(OC(F)F)nc2)s1 (racemic) [Example 210, rac-2-[N-[4-amino-5-[6-(difluoromethoxy)pyridine-3-carbonyl]thiazol-2-yl]-4-(difluoromethoxy)-3-fluoro-anilino]propanamide]
40 nM	CC(C(N)=O)N(c1ccc(F)cc1)c1nc(N)c(C(=O)c2ccc(NC(=O)C3CC3)cc2)s1 (racemic) [Example 177, rac-4-[4-[4-amino-2-(N-(2-amino-1-methyl-2-oxo-ethyl)-4-fluoro-anilino)thiazole-5-carbonyl]phenyl]cyclopropanecarboxamide]
33.3 nM	CC(C(N)=O)N(c1ccc(F)cc1)c1nc(N)c(C(=O)c2ccc(OCC(=O)NC3CCCCC3)cc2)s1 (racemic) [Example 106, rac-2-(N-(4-amino-5-[4-[2-(cyclohexylamino)-2-oxo-ethoxy]benzoyl]thiazol-2-yl]-4-fluoro-anilino)propanamide]
22.8 nM	CC(C(N)=O)N(c1ccc(F)cc1)c1nc(N)c(C(=O)c2ccc(C#N)cc2)s1 (single isomer, unassigned) [Example 33.2, 2-(N-[4-amino-5-(4-cyanobenzoyl)thiazol-2-yl]-4-fluoro-anilino)propanamide]
22.2 nM	CC(C(N)=O)N(c1ccc(Cl)c(F)c1)c1nc(N)c(C(=O)c2ccccc2)s1 (racemic) [Example 36, rac-2-(N-(4-amino-5-benzoyl-thiazol-2-yl)-4-chloro-3-fluoro-anilino)propanamide]
19 nM	CC(=O)OCCOc1ccc(C(=O)c2sc(N(c3ccc(F)cc3)C(C)C(N)=O)nc2N)cc1 (racemic) [Example 168, rac-2-[4-[4-amino-2-(N-(2-amino-1-methyl-2-oxo-ethyl)-4-fluoro-anilino)thiazole-5-carbonyl]phenoxy]ethyl acetate]
11 nM	CC(C(N)=O)N(c1ccc(F)cc1)c1nc(N)c(C(=O)c2ccc(I)cc2)s1 (racemic) [Example 171, rac-2-(N-[4-amino-5-(4-iodobenzoyl)thiazol-2-yl]4-fluoro-anilino)propanamide]
9.07 nM	CC(C(N)=O)N(c1ccc(F)cc1)c1nc(N)c(C(=O)c2ccc(OCC(=O)Nc3ccc(F)cc3)cc2)s1 (racemic) [Example 122, rac-2-(N-[4-amino-5-[4-[2-(4-fluoroanilino)-2-oxo-ethoxy]benzoyl]thiazol-2-yl]-4-fluoro-anilino)propanamide]
3 nM	CC(C(N)=O)N(c1ccc(Cl)c(F)c1)c1nc(N)c(C(=O)c2ccc(OCc3ccccc3)cc2)s1 (racemic) [Example 166, rac-2-(N-[4-amino-5-(4-benzyloxybenzoyl)thiazol-2-yl]-4-chloro-3-fluoro-anilino)propanamide]
1.96 nM	CC(C(N)=O)N(c1ccc(Cl)cc1)c1nc(N)c(C(=O)c2ccc(OC(F)F)cc2)s1 (single isomer, unassigned) [Example 47.2, 2-(N-[4-amino-5-[4-(difluoromethoxy)benzoyl]thiazol-2-yl]-4-chloro-anilino)propanamide]
